Source: PubChem BioAssay (NCI)
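Briefly, cells in 96-well plates were exposed to five compound concentrations for 48 h, and endpoints were estimated by linear interpolation. GI50 is the concentration that inhibits growth by half. TGI denotes the concentration required for complete inhibition of growth.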

Key:
Experiment in all cases: DTP human tumour cell line panel, 48 h
[1] = system: SW-620 colon
[2] = system: UACC-62 melanoma
[3] = system: RPMI-8226 leukemia
[4] = system: HOP-92 NSCLC
[5] = system: SK-MEL-5 melanoma
[6] = system: UO-31 renal
[7] = system: DU-145 prostate
[8] = system: SK-MEL-28 melanoma
[9] = system: A498 renal
[10] = system: MDA-MB-435
[11] = system: HS 578T breast
[12] = system: NCI-H522 lung
[13] = system: BT-549 breast
[14] = system: 786-0 renal
[15] = system: K-562 leukemia
[16] = system: ACHN renal
[17] = system: MCF7 breast
[18] = system: MALME-3M melanoma
[19] = system: SK-MEL-2 melanoma
[20] = system: IGROV1 ovarian
[21] = system: HCC-2998 colon
[22] = system: CCRF-CEM leukemia
[23] = system: SF-268 CNS
[24] = system: OVCAR-8 ovarian
[25] = system: MDA-MB-231 breast
[26] = system: LOX IMVI melanoma
[27] = system: EKVX NSCLC
[28] = system: RXF 393 renal
[29] = system: A549 NSCLC
[30] = system: COLO 205 colon
[31] = system: SN12C renal
[32] = system: HL-60(TB) leukemia
[33] = system: HCT-116 colon
[34] = system: MOLT-4 leukemia
[35] = system: SR leukemia
[36] = system: NCI-H226 lung
[37] = system: OVCAR-3 ovarian
[38] = system: TK-10 renal
[39] = system: OVCAR-5 ovarian
[40] = system: NCI-H460 lung
[41] = system: OVCAR-4 ovarian
[42] = system: HT29 colon
[43] = system: SF-295 CNS
[44] = system: SNB-75 CNS
[45] = system: M14 melanoma
[46] = system: UACC-257 melanoma
[47] = system: SF-539 CNS
[48] = system: T-47D breast
[49] = system: NCI/ADR-RES ovarian
[50] = system: HCT-15 colon
[51] = system: SK-OV-3 ovarian
[52] = system: KM12 colon
[53] = system: SNB-19 CNS
[54] = system: CAKI-1 renal
[55] = system: NCI-H23 lung
[56] = system: PC-3 prostate
[57] = system: U251 CNS
[58] = system: HOP-62 NSCLC

`Cc1ccc(N=Nc2c(O)ccc3n[nH]nc23)cc1` was tested, and the GI50 [1] was 12.3 µM, the TGI [1] was > 100 µM and the GI50 [2] was 4.52 µM. The TGI [2] was 47.7 µM, the GI50 [3] was 5.52 µM and the TGI [3] was 55.4 µM. The GI50 [4] was 15.4 µM, the TGI [4] was 83.8 µM and the GI50 [5] was 3.19 µM. For the same compound, the TGI [5] was 13.2 µM, the GI50 [6] was 11.7 µM and the TGI [6] was 44.9 µM. It also gave a GI50 [7] of 16.1 µM, a TGI [7] of 44.9 µM and a GI50 [8] of 20.6 µM. The TGI [8] was > 100 µM, the GI50 [9] was 1.99 µM and the TGI [9] was 42.2 µM. For the same compound, the GI50 [10] was 4.47 µM, the TGI [10] was 37.5 µM and the GI50 [11] was 10.9 µM. It also gave a TGI [11] of 58.4 µM, a GI50 [12] of 10.1 µM and a TGI [12] of 45.5 µM. For the same compound, the GI50 [13] was 21.2 µM, the TGI [13] was > 100 µM and the GI50 [14] was 20.3 µM. For the same compound, the TGI [14] was > 100 µM, the GI50 [15] was 9.06 µM and the TGI [15] was > 100 µM. The GI50 [16] was 11.5 µM, the TGI [16] was 69.2 µM and the GI50 [17] was 9.25 µM. It also gave a TGI [17] of 97.5 µM, a GI50 [18] of 8.17 µM and a TGI [18] of 48 µM. The GI50 [19] was 19 µM, the TGI [19] was 59.4 µM and the GI50 [20] was 12.2 µM. For the same compound, the TGI [20] was 50.6 µM, the GI50 [21] was 26.2 µM and the TGI [21] was > 100 µM. The GI50 [22] was 4.13 µM, the TGI [22] was 55.6 µM and the GI50 [23] was 14.9 µM. For the same compound, the TGI [23] was 77.5 µM, the GI50 [24] was 16.5 µM and the TGI [24] was 75 µM. The GI50 [25] was 13 µM, the TGI [25] was > 100 µM and the GI50 [26] was 12.7 µM. The TGI [26] was > 100 µM, the GI50 [27] was 11.6 µM and the TGI [27] was 50 µM. The GI50 [28] was 13.2 µM, the TGI [28] was 82.1 µM and the GI50 [29] was 14.2 µM. For the same compound, the TGI [29] was > 100 µM, the GI50 [30] was 22.4 µM and the TGI [30] was 73.9 µM. The GI50 [31] was 17 µM, the TGI [31] was > 100 µM and the GI50 [32] was 7.32 µM. The TGI [32] was 57.8 µM, the GI50 [33] was 12.5 µM and the TGI [33] was > 100 µM. For the same compound, the GI50 [34] was 2.89 µM, the TGI [34] was 12.8 µM and the GI50 [35] was 14 µM. For the same compound, the TGI [35] was 64.8 µM, the GI50 [36] was 15.3 µM and the TGI [36] was > 100 µM. The GI50 [37] was 4.31 µM, the TGI [37] was 22.2 µM and the GI50 [38] was 11.7 µM. The TGI [38] was 73.5 µM, the GI50 [39] was 43.5 µM and the TGI [39] was > 100 µM. For the same compound, the GI50 [40] was 13.9 µM, the TGI [40] was 52.9 µM and the GI50 [41] was 9.3 µM. For the same compound, the TGI [41] was > 100 µM, the GI50 [42] was 31.8 µM and the TGI [42] was > 100 µM. For the same compound, the GI50 [43] was 11.3 µM, the TGI [43] was 38 µM and the GI50 [44] was 17.4 µM. For the same compound, the TGI [44] was > 100 µM, the GI50 [45] was 27.8 µM and the TGI [45] was > 100 µM. It also gave a GI50 [46] of 5.09 µM, a TGI [46] of 39.5 µM and a GI50 [47] of 15.8 µM. For the same compound, the TGI [47] was > 100 µM, the GI50 [48] was 10.2 µM and the TGI [48] was 57.7 µM. It also gave a GI50 [49] of 10.2 µM, a TGI [49] of 73.2 µM and a GI50 [50] of 12.3 µM. The TGI [50] was 92.4 µM, the GI50 [51] was 10.3 µM and the TGI [51] was > 100 µM. It also gave a GI50 [52] of 10.8 µM, a TGI [52] of 37.9 µM and a GI50 [53] of 20.7 µM. The TGI [53] was > 100 µM, the GI50 [54] was 4.63 µM and the TGI [54] was 38.9 µM. The GI50 [55] was 5.65 µM, the TGI [55] was 38.3 µM and the GI50 [56] was 5.99 µM. The TGI [56] was > 100 µM, the GI50 [57] was 11.4 µM and the TGI [57] was > 100 µM. The GI50 [58] was 28 µM and the TGI [58] was > 100 µM.
Compound `OC(CN1CCCC2CCCCC21)c1cc2ccccc2c2ccccc12` (configuration not stated) has a GI50 [1] of 1.66 µM, a TGI [1] of 3.36 µM and a GI50 [2] of 2.32 µM. It also gave a TGI [2] of 6.58 µM, a GI50 [3] of 1.6 µM and a TGI [3] of 3.87 µM. It also gave a GI50 [4] of 1.24 µM, a TGI [4] of 3.42 µM and a GI50 [5] of 1.67 µM. For the same compound, the TGI [5] was 3.05 µM, the GI50 [6] was 1.44 µM and the TGI [6] was 7.41 µM. The GI50 [7] was 3.73 µM, the TGI [7] was 14 µM and the GI50 [8] was 2.06 µM. The TGI [8] was 4.36 µM, the GI50 [9] was 2.21 µM and the TGI [9] was 5.8 µM. For the same compound, the GI50 [10] was 2.02 µM, the TGI [10] was 5.06 µM and the GI50 [11] was 2.37 µM. It also gave a TGI [11] of 7.46 µM, a GI50 [12] of 1.45 µM and a TGI [12] of 3.06 µM. For the same compound, the GI50 [13] was 1.54 µM, the TGI [13] was 4.06 µM and the GI50 [14] was 1.84 µM. The TGI [14] was 3.6 µM, the GI50 [15] was 1.68 µM and the TGI [15] was 3.39 µM. The GI50 [16] was 3 µM, the TGI [16] was 10.1 µM and the GI50 [17] was 1.84 µM. The TGI [17] was 3.51 µM, the GI50 [18] was 1.53 µM and the TGI [18] was 3.45 µM. It also gave a GI50 [19] of 1.67 µM, a TGI [19] of 3.31 µM and a GI50 [20] of 2.59 µM. The TGI [20] was 8.66 µM, the GI50 [21] was 1.78 µM and the TGI [21] was 3.9 µM. The GI50 [22] was 1.87 µM, the TGI [22] was 5.2 µM and the GI50 [23] was 3.64 µM. The TGI [23] was 13.7 µM, the GI50 [24] was 3.2 µM and the TGI [24] was 15.3 µM. It also gave a GI50 [25] of 1.69 µM, a TGI [25] of 4.06 µM and a GI50 [26] of 1.53 µM. The TGI [26] was 2.93 µM, the GI50 [27] was 1.56 µM and the TGI [27] was 3.54 µM. The GI50 [28] was 1.71 µM, the TGI [28] was 3.59 µM and the GI50 [29] was 4.65 µM. The TGI [29] was 19.1 µM, the GI50 [30] was 1.45 µM and the TGI [30] was 2.9 µM. For the same compound, the GI50 [31] was 3.38 µM, the TGI [31] was 13.4 µM and the GI50 [32] was 2.02 µM. It also gave a TGI [32] of 3.76 µM, a GI50 [33] of 1.29 µM and a TGI [33] of 2.56 µM. The GI50 [34] was 1.81 µM, the TGI [34] was 4.79 µM and the GI50 [35] was 1.6 µM. It also gave a TGI [35] of 3.43 µM, a GI50 [36] of 2.14 µM and a TGI [36] of 6.32 µM. The GI50 [37] was 2.82 µM, the TGI [37] was 8.54 µM and the GI50 [38] was 2.3 µM. For the same compound, the TGI [38] was 7.66 µM, the GI50 [39] was 1.95 µM and the TGI [39] was 5.64 µM. For the same compound, the GI50 [40] was 1.83 µM, the TGI [40] was 3.53 µM and the GI50 [41] was 2.39 µM. For the same compound, the TGI [41] was 12.4 µM, the GI50 [42] was 1.32 µM and the TGI [42] was 3.07 µM. The GI50 [43] was 1.45 µM, the TGI [43] was 3.21 µM and the GI50 [44] was 1.9 µM. For the same compound, the TGI [44] was 6.83 µM, the GI50 [45] was 1.52 µM and the TGI [45] was 2.86 µM. The GI50 [46] was 1.96 µM, the TGI [46] was 4.73 µM and the GI50 [47] was 1.99 µM. The TGI [47] was 4.74 µM, the GI50 [48] was 2.16 µM and the TGI [48] was 5.71 µM. It also gave a GI50 [49] of 2.07 µM, a TGI [49] of 5.19 µM and a GI50 [50] of 2.15 µM. The TGI [50] was 9.23 µM, the GI50 [51] was 3.16 µM and the TGI [51] was 10.8 µM. The GI50 [52] was 1.87 µM, the TGI [52] was 4.04 µM and the GI50 [53] was 3.52 µM. It also gave a TGI [53] of 15.1 µM, a GI50 [54] of 2.36 µM and a TGI [54] of 8.15 µM. For the same compound, the GI50 [55] was 2.14 µM, the TGI [55] was 7.14 µM and the GI50 [56] was 2.27 µM. The TGI [56] was 10.1 µM, the GI50 [57] was 1.85 µM and the TGI [57] was 3.77 µM. The GI50 [58] was 1.84 µM and the TGI [58] was 3.91 µM.
